# Earlier results, collected in patent US7928052B2, “Enzyme stabilization” (Dow Global Technologies LLC, priority 2004, dated 2011).
smiles,measurement,setting,value
CC(O)C(=O)O (centres unmarked) [lactic acid],"K1, complexation constant B(OH)3+H2L⇄[1:1]−+H3O+",H2L is fully protonated lactic acid,1.8×10^−3
same,"K1′, complexation constant B(OH)3+HL−⇄[1:1]−+H2O","pH 4 to about pH 10, lactic acid having lost a proton",9.0 M⁻¹
